Source: patent US7223731B2, “Thrombospondin-1 type 1 repeat polypeptides” (Beth Israel Deaconess Medical Center, Inc., priority 2000, dated 2007)

Experiments:
B16F10 tumor cell = B16F10 tumor cell proliferation in vitro; type: cell-based, murine
B16F10 melanoma = assay: Primary tumor growth assay, B16F10 melanoma; type: in vivo, C57BL/6 mice
Method: The proteins for injection were mixed with Polymyxin B-Agarose (Sigma) for 30 minutes at room temperature to remove endotoxin. The endotoxin levels were less than 0.05 EU/mg as determined using the QCL-1000 assay kit (Biowhittaker, Walkersville, Md.). Proteins were filter-sterilized and the protein concentration was determined prior to injection.
(§1) Five to eight week old C57BL/6 mice (Taconic, Germantown, N.Y.) were acclimated, caged in groups of four or less and their backs were shaved. Cultured B16F10 melanoma or Lewis lung carcinoma cells (1×10^6) were inoculated subcutaneously on the back of each mouse. Tumors were measured with a dial-caliper and the volumes were determined using the formula width^2×length×0.52. The treatment began 4 days after inoculation of the tumor cells. […] The experiments were terminated and mice sacrificed when the control mice began to die, usually at day 16 post-tumor cell injection.
Each treatment group contained six five- to eight-week old C57BL/6 mice. Treatment was initiated four days after subcutaneous injection of 1×10^6 B16F10 melanoma cells. The mice received one IP injection each day of saline, TSR2, TSR2+RFK or TSR2+QFK (SEQ ID NO: 23). A soluble form of the TGFβ receptor (100 μg/mouse/injection) (Smith, J. D. et al., Circulation Research 84:1212–1222, 1999) was included in the saline or TSR2+RFK injections on treatment day 1 and 7 for two additional experimental groups. The recombinant TSR-containing proteins were used at 1.0 mg/kg/day.
Each treatment group contained six five- to eight-week old C57BL/6 mice. Treatment was initiated four days after subcutaneous injections of 1×10^6 B16F10 melanoma cells. The mice received one IP injection each day, of saline, all three type 1 repeats of human TSP-1 [3TSR (TSP1) in FIG. 9] or all three type 1 repeats of mouse TSP-2 [3TSR (TSP2) in FIG. 9]. Recombinant proteins were used at a dose of 2.5 mg/kg/day.

[1] = system: Human dermal microvessel endothelial cells (HDMEC); assay: In vitro endothelial cell migration assay (FGF-2 induced, transwell); type: cell-based
Method: Human dermal microvessel endothelial cells (HDMEC) were isolated by the procedure of Richard et al., Exp. Cell Res. 240:1–6 (1998). The cells were cultured in Vitrogen precoated dishes, and maintained in EBM (Clonetics Corp, San Diego, Calif.) containing 20% fetal bovine serum (FBS), 1 mg/ml hydrocortisone acetate, 5×10^−5 M dibutyryl-cAMP, 200 U/ml penicillin, 100 U/ml streptomycin, 250 mg/ml amphotericin and 2–5 ng/ml VEGF. Murine melanoma B16F10 and murine Lewis lung carcinoma cells were obtained from the ATCC, and were maintained in Dulbecco's Modified Eagle Media (DMEM) supplemented with 10% FBS, […] penicillin, 50 U/ml streptomycin, and 2 mM glutamine (supplemented DMEM). Mink lung epithelial cells (MLECs-Clone 32) that have been stably transfected with an 800 bp fragment of the plasminogen activator inhibitor-1 (PAI-1) promoter fused to the firefly luciferase reporter gene were kindly provided by Dr. Daniel Rifkin (Abe, M. et al., Anal. Biochem. 216:276–284, 1994). The transfected MLECs were maintained in supplemented DMEM.
Cells at passage 7–10 were serum-starved and maintained in EBM with 0.1% BSA (control media) for 20 hours before trypsinization to harvest the cells. Cells were washed in EBM twice and resuspended in control media at a concentration of 1×10^6 cells/ml. […] of cells were packed down and kept frozen. They were lysed and serially diluted by CyQuant reagent (Molecular Probe, Eugene, Oreg.) to be used for standard curve construction.
Transwell membrane (24-well polycarbonate membrane, […] from Corning Costar Corporation, Cambridge, Mass.) coated with Vitrogen (30 mg/ml, Invitrogen) on both sides was used for chemotactic migration experiments. Coated transwells were inverted, […] of cell suspension applied to the top of the membrane and covered by the bottom plate carefully so that the cell suspension stayed on top of the membrane. The cells were allowed to adhere to the coated membrane for two hours in an incubator at 37° C. with 5% CO2. After the adhesion incubation, the plates were re-inverted, the bottom wells were filled with 0.4 ml control media and the top wells were filled with 0.1 ml control media containing testing reagents. The plate was returned to the incubator for 3.5 hours for the cells to migrate. At the end of the incubation, the transwells were washed in PBS and the cells on the […] of the membrane (unmigrated cells) were wiped away with a cotton swab. The membranes were cut out by scalpel and placed into 96-well plates and frozen at −80° C. overnight. […] Fluorescence reading was done 16 hours later with a SpectraFluor plate reader with excitation at 485 nm and emission at […]. The number of cells migrated was then calculated based on the standard curve.

Lewis lung carcinoma = assay: Primary tumor growth assay, Lewis lung carcinoma; type: in vivo, C57BL/6 mice; settings: 2.5 mg/kg/day IP daily, treatment day 12
Method: as §1, with “The proteins for injection were mixed with Polymyxin B-Agarose (Sigma) for 30 minutes at room temperature to remove endotoxin. The endotoxin levels were less than 0.05 EU/mg as determined using the QCL-1000 assay kit (Biowhittaker, Walkersville, Md.). Proteins were filter-sterilized and the protein concentration was determined prior to injection. Five” for “Five”

Molecule: TGFβ [reference compound]
- B16F10 tumor cell proliferation in vitro (in words) (B16F10 tumor cell): inhibit

Molecule: TSR2+QFK: recombinant version of the TSR2+RFK protein in which Q is substituted for R (arginine 413 to glutamine)
- B16F10 tumor growth inhibition (in words) (B16F10 melanoma; 1.0 mg/kg/day IP daily, FIG. 8): less effective as an inhibitor of tumor growth than TSR2+RFK

Molecule: TSP-1: Human TSP-1 purified from the supernatant of thrombin-treated platelets
- concentration up to which inhibition of endothelial cell migration is dose-dependent ([1]; biphasic response, concentrations above this level are less effective): 100 ng/mL
- reduction of tumor growth (B16F10 melanoma; 0.25 mg/kg/day (0.6 nmoles/kg/day) injection): 56%
- B16F10 tumor growth inhibition (in words) (B16F10 melanoma; 2.5 mg/kg/day IP daily): no effect
- inhibition of tumor growth (B16F10 melanoma; systemic injection, 0.25 mg/ml as printed, twelfth treatment day): 56%

Molecule: 3TSR: recombinant protein containing all three TSRs of human TSP-1, amino acids 361–530
- concentration maximally effective in inhibiting endothelial cell migration ([1]; HDMEC migration in response to FGF-2): 10 ng/mL
- inhibition of Lewis lung carcinoma tumor growth (Lewis lung carcinoma): 73%
- B16F10 tumor growth inhibition (in words) (B16F10 melanoma; 0.25 mg/kg/day IP daily): less effective
- inhibition of B16F10 tumor growth (tumor volume) (B16F10 melanoma; 2.5 mg/kg/day IP daily): 81%
- B16F10 tumor growth inhibition (in words) (B16F10 melanoma; 10 mg/kg/day): remains maximally active
- B16F10 tumor growth inhibition compared with TSP-1 (in words) (B16F10 melanoma; dosages of 1.0 mg/kg/day and greater): more effective than TSP-1

B1: 3TSR (TSP2): recombinant protein with all three TSRs of mouse TSP-2, amino acids Asp 381 through Ile 550 (protein, listed as Mus musculus)
chain: DEGWSPWAEWTECSVTCGSGTQQRGRSCDVTSNTCLGPSIQTRTCSLGKCDTRIRQNGGWSHWSPWSSCSVTCGVGNVTRIRLCNSPVPQMGGKNCKGSGRETKPCQRDPCPIDGRWSPWSPWSACTVTCAGGIRERSRVCNSPEPQYGGKDCVGDVTEHQMCNKRSCPI
- B16F10 tumor growth inhibition (in words) (B16F10 melanoma; 2.5 mg/kg/day IP daily): significantly less potent
